From US8394952B2 (Vertex Pharmaceuticals Incorporated, priority 2006, dated 2013)

The compounds below were run against Plk1 (Homo sapiens, UniProt P53350) (assay: biochemical).
Chain of Plk1 (P53350 20-338): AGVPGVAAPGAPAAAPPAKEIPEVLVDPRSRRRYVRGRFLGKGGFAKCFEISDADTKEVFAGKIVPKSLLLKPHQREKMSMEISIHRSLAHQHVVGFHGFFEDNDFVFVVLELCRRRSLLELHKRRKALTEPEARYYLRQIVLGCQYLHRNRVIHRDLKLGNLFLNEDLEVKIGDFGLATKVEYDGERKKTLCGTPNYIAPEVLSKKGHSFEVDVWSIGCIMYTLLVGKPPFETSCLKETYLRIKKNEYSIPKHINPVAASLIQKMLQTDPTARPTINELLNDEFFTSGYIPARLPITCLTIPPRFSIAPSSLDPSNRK
In the case of `COc1cc(C(=O)NC2CCN(C)CC2)ccc1Nc1ncc2c(n1)N(C1CCCC1)CC1(CCC1)C(=O)N2C` [Compound I-64, 4-(9′-cyclopentyl-5′-methyl-6′-oxo-5′,6′,8′,9′-tetrahydrospiro[cyclobutane-1,7′-pyrimido[4,5-b][1,4]diazepine]-2′-ylamino)-3-methoxy-N-(1-methylpiperidin-4-yl)benzamide], the Ki is reported as under 0.01 µM. `CN1CCN(c2ccc(Nc3ncc4c(n3)N(C3CCCC3)CC(C)(C)C(=O)N4C)cc2)CC1` [Compound I-85, 2-(4-(4-methylpiperazin-1-yl)phenylamino)-9-cyclopentyl-8,9-dihydro-5,7,7-trimethyl-5H-pyrimido[4,5-b][1,4]diazepin-6(7H)-one] gave a Ki of under 0.01 µM. Work on `COc1cc(C(=O)NCC2CCOCC2)ccc1Nc1ncc2c(n1)N(C1CCCC1)CC(C)(C)C(=O)N2C` [Compound I-195, 4-(9-cyclopentyl-5,7,7-trimethyl-6-oxo-6,7,8,9-tetrahydro-5H-pyrimido[4,5-b][1,4]diazepin-2-ylamino)-3-methoxy-N-((tetrahydrofuran-2H-pyran-4-yl)methyl)benzamide] yielded a Ki of under 0.01 µM. With `COc1cc(C(=O)NCCCOC(C)=O)ccc1Nc1ncc2c(n1)N(C1CCCC1)CC(C)(C)C(=O)N2C` [Compound I-273, 3-(4-(9-cyclopentyl-5,7,7-trimethyl-6-oxo-6,7,8,9-tetrahydro-5H-pyrimido[4,5-b][1,4]diazepin-2-ylamino)-3-methoxybenzamido)propyl acetate] the Ki was under 0.01 µM. `COc1cc(C(=O)NCC2CC2(F)F)ccc1Nc1ncc2c(n1)N(C1CCCC1)CC(C)(C)C(=O)N2C` (centres unmarked) [Compound I-245, 4-(9-cyclopentyl-5,7,7-trimethyl-6-oxo-6,7,8,9-tetrahydro-5H-pyrimido[4,5-b][1,4]diazepin-2-ylamino)-N-((2,2-difluorocyclopropyl)methyl)-3-methoxybenzamide] showed a Ki of under 0.01 µM. Work on `COc1ccccc1Nc1ncc2c(n1)N(C1CCCC1)CC(C)(C)C(=O)N2C` [Compound I-102, 2-(2-methoxyphenylamino)-9-cyclopentyl-8,9-dihydro-5,7,7-trimethyl-5H-pyrimido[4,5-b][1,4]diazepin-6(7H)-one] yielded a Ki of 0.01 to 0.1 µM. Compound `CN1C(=O)C(C)(C)CN(C2CCCC2)c2nc(Nc3cccc(NC(=O)C4CCC4)c3)ncc21` [Compound I-151, N-(3-(9-cyclopentyl-6,7,8,9-tetrahydro-5,7,7-trimethyl-6-oxo-5H-pyrimido[4,5-b][1,4]diazepin-2-ylamino)phenyl)cyclobutanecarboxamide] has a Ki of 0.01 to 0.1 µM. `CN1C(=O)C(C)(C)CN(C2CCCC2)c2nc(Nc3cccc(C(=O)NC4CN(C(=O)OC(C)(C)C)C4)c3)ncc21` [Compound I-143, 3-[3-(9-Cyclopentyl-5,7,7-trimethyl-6-oxo-6,7,8,9-tetrahydro-5H-pyrimido[4,5-b][1,4]diazepin-2-ylamino)-benzoylamino]-azetidine-1-carboxylic acid tert-butyl ester] was tested, and the Ki was 0.01 to 0.1 µM. Compound `CNC(=O)c1ccc(Nc2ncc3c(n2)N(C2CC4CCC2C4)CC(C)(C)C(=O)N3C)c(OC)c1` (centres unmarked) [Compound I-191, 4-(9-(bicyclo[2.2.1]heptan-2-yl)-5,7,7-trimethyl-6-oxo-6,7,8,9-tetrahydro-5H-pyrimido[4,5-b][1,4]diazepin-2-ylamino)-3-methoxy-N-methylbenzamide] has a Ki of under 0.01 µM. Work on `CNC(=O)c1ccc(Nc2ncc3c(n2)N(C2CCCC2)CC(C)(C)C(=O)N3C)c(OC(C)C)c1` [Compound I-50, 4-(9-cyclopentyl-6,7,8,9-tetrahydro-5,7,7-trimethyl-6-oxo-5H-pyrimido[4,5-b][1,4]diazepin-2-ylamino)-3-isopropoxy-N-methylbenzamide] yielded a Ki of 0.01 to 0.1 µM. `COc1cc(C(=O)N[C@@H]2CCOC2)ccc1Nc1ncc2c(n1)N(C1CCCC1)CC(C)(C)C(=O)N2C` [Compound I-187, (R)-4-(9-cyclopentyl-5,7,7-trimethyl-6-oxo-6,7,8,9-tetrahydro-5H-pyrimido[4,5-b][1,4]diazepin-2-ylamino)-3-methoxy-N-(tetrahydrofuran-3-yl)benzamide] showed a Ki of under 0.01 µM. In the case of `COc1cc(C(=O)NC[C@@H]2CCCC[C@@H]2O)ccc1Nc1ncc2c(n1)N(C1CCCC1)CC(C)(C)C(=O)N2C` [Compound I-216, 4-(9-cyclopentyl-5,7,7-trimethyl-6-oxo-6,7,8,9-tetrahydro-5H-pyrimido[4,5-b][1,4]diazepin-2-ylamino)-N-(((1S,2S)-2-hydroxycyclohexyl)methyl)-3-methoxybenzamide], the Ki is reported as under 0.01 µM. Work on `COc1cc(C(=O)O)ccc1Nc1ncc2c(n1)N(C1CCCC1)CC(C)C(=O)N2C` (centres unmarked) [Compound I-10, 4-(9-cyclopentyl-6,7,8,9-tetrahydro-5,7-dimethyl-6-oxo-5H-pyrimido[4,5-b][1,4]diazepin-2-ylamino)-3-methoxybenzoic acid] yielded a Ki of 0.01 to 0.1 µM. With `CNC(=O)c1ccc(Nc2ncc3c(n2)N(C2CCCC2)C[C@H](C)C(=O)N3C)c(OC)c1` [Compound I-17, 4-((S)-9-cyclopentyl-6,7,8,9-tetrahydro-5,7-dimethyl-6-oxo-5H-pyrimido[4,5-b][1,4]diazepin-2-ylamino)-3-methoxy-N-methylbenzamide] the Ki was under 0.01 µM. For `CNC(=O)c1ccc(Nc2ncc3c(n2)N([C@@H]2CCN(CC4CC4)C2)CC(C)(C)C(=O)N3C)c(OC)c1` [Compound I-66], the Ki was 0.01 to 0.1 µM. For `COc1cc(C(=O)Nc2ccnc(Cl)c2)ccc1Nc1ncc2c(n1)N(C1CCCC1)CC(C)(C)C(=O)N2C` [Compound I-227, N-(2-chloropyridin-4-yl)4-(9-cyclopentyl-5,7,7-trimethyl-6-oxo-6,7,8,9-tetrahydro-5H-pyrimido[4,5-b][1,4]diazepin-2-ylamino)-3-methoxybenzamide], the Ki was under 0.01 µM. Work on `COc1cc(C(=O)NC2CCN(C)CC2)ccc1Nc1ncc2c(n1)N(C1CCCC1)CC1(CC1)C(=O)N2C` [Compound I-76, 4-(9′-cyclopentyl-5′-methyl-6′-oxo-5′,6′,8′,9′-tetrahydrospiro[cyclopropane-1,7′-pyrimido[4,5-b][1,4]diazepine]-2′-ylamino)-3-methoxy-N-(1-methylpiperidin-4-yl)benzamide] yielded a Ki of under 0.01 µM. In the case of `COc1cc(C(=O)NC2CCN(CCF)CC2)ccc1Nc1ncc2c(n1)N(C1CCCC1)CC(C)(C)C(=O)N2C` [Compound I-77, 4-(-9-cyclopentyl-6,7,8,9-tetrahydro-5,7,7-trimethyl-6-oxo-5H-pyrimido[4,5-b][1,4]diazepin-2-ylamino)-N-(1-(2-fluoroethyl)piperidin-4-yl)-3-methoxybenzamide], the Ki is reported as under 0.01 µM. `COc1cc(C(=O)NC2CC2)ccc1Nc1ncc2c(n1)N(C1CCCC1)CC1(CC1)C(=O)N2C` [Compound I-178, 4-(9′-cyclopentyl-5′-methyl-6′-oxo-5′,6′,8′,9′-tetrahydrospiro[cyclopropane-1,7′-pyrimido[4,5-b][1,4]diazepine]-2′-ylamino)-N-cyclopropyl-3-methoxybenzamide] showed a Ki of under 0.01 µM. `COc1cc(C(=O)N[C@@H]2CCCC[C@H]2O)ccc1Nc1ncc2c(n1)N(C1CCCC1)CC(C)(C)C(=O)N2C` [Compound I-268, 4-(9-cyclopentyl-5,7,7-trimethyl-6-oxo-6,7,8,9-tetrahydro-5H-pyrimido[4,5-b][1,4]diazepin-2-ylamino)-N-((1R,2R)-2-hydroxycyclohexyl)-3-methoxybenzamide] showed a Ki of under 0.01 µM. Compound `COc1cc(C(=O)N[C@@H]2CC[C@@H](CO)C2)ccc1Nc1ncc2c(n1)N(C1CCCC1)CC(C)(C)C(=O)N2C` [Compound I-260, 4-(9-cyclopentyl-5,7,7-trimethyl-6-oxo-6,7,8,9-tetrahydro-5H-pyrimido[4,5-b][1,4]diazepin-2-ylamino)-N-((1R,3R)-3-(hydroxymethyl)cyclopentyl)-3-methoxybenzamide] has a Ki of under 0.01 µM. Work on `CNC(=O)c1ccc(Nc2ncc3c(n2)N(C2CCCC2)CC(C)(C)c2nncn2-3)c(OC)c1` [Compound I-36, 4-(6-Cyclopentyl-4,4-dimethyl-5,6-dihydro-4H-2,3,6,7,9,10b-hexaazabenzo[e]azulen-8-ylamino)-3-methoxy-N-methylbenzamide] yielded a Ki of under 0.01 µM. Work on `COC(=O)Nc1cccc(Nc2ncc3c(n2)N(C2CCCC2)CC(C)(C)C(=O)N3C)c1` [Compound I-155] yielded a Ki of 0.01 to 0.1 µM. `COc1cc(C(=O)NCc2ccco2)ccc1Nc1ncc2c(n1)N(C1CCCC1)CC(C)(C)C(=O)N2C` [Compound I-193, 4-(9-cyclopentyl-5,7,7-trimethyl-6-oxo-6,7,8,9-tetrahydro-5H-pyrimido[4,5-b][1,4]diazepin-2-ylamino)-N-(furan-2-ylmethyl)-3-methoxybenzamide] showed a Ki of under 0.01 µM. `CN1C(=O)C(C)(C)CN(C2CCCC2)c2nc(Nc3ccccc3)ncc21` [Compound I-90, 9-cyclopentyl-8,9-dihydro-5,7,7-trimethyl-2-(phenylamino)-5H-pyrimido[4,5-b][1,4]diazepin-6(7H)-one] gave a Ki of 0.01 to 0.1 µM. For `COCC(=O)Nc1cccc(Nc2ncc3c(n2)N(C2CCCC2)CC(C)(C)C(=O)N3C)c1` [Compound I-147, N-(3-(9-Cyclopentyl-6,7,8,9-tetrahydro-5,7,7-trimethyl-6-oxo-5H-pyrimido[4,5-b][1,4]diazepin-2-ylamino)phenyl)-2-methoxyacetamide], the Ki was 0.01 to 0.1 µM. With `COc1cc(C(=O)NCCc2cncn2C)ccc1Nc1ncc2c(n1)N(C1CCCC1)CC(C)(C)C(=O)N2C` [Compound I-27, 4-(9-cyclopentyl-6,7,8,9-tetrahydro-5,7,7-trimethyl-6-oxo-5H-pyrimido[4,5-b][1,4]diazepin-2-ylamino)-3-methoxy-N-(2-(1-methyl-1H-imidazo-5-yl)ethyl)benzamide] the Ki was under 0.01 µM. In the case of `COc1cc(C(=O)NCc2cccnc2)ccc1Nc1ncc2c(n1)N(C1CCCC1)CC1(CC1)C(=O)N2C` [Compound I-249, 4-(9′-cyclopentyl-5′-methyl-6′-oxo-5′,6′,8′,9′-tetrahydrospiro[cyclopropane-1,7′-pyrimido[4,5-b][1,4]diazepine]-2′-ylamino)-3-methoxy-N-(pyridin-3-ylmethyl)benzamide], the Ki is reported as under 0.01 µM. Work on `COc1cc(C(=O)NC(C)(C)CO)ccc1Nc1ncc2c(n1)N(C1CCCC1)CC(C)(C)C(=O)N2C` [Compound I-240, 4-(9-cyclopentyl-5,7,7-trimethyl-6-oxo-6,7,8,9-tetrahydro-5H-pyrimido[4,5-b][1,4]diazepin-2-ylamino)-N-(1-hydroxy-2-methylpropan-2-yl)-3-methoxybenzamide] yielded a Ki of under 0.01 µM.
